# Test results reported in article PMC3618206, “High-throughput fluorescent-based NKCC functional assay in adherent epithelial cells” (BMC Cell Biology, 2013).
# Tested on: T1, c-NKCC2 (chimeric NKCC1-NKCC2 construct)
# T1 construct: gene SLC12A2; single polypeptide chimera: NKCC1 backbone with whole NKCC1 transmembrane domain, C-terminal apical sorting domain exchanged for that of mammalian NKCC2 isoform B; N-terminal HA tag; stably expressed in LLC-PK1 cells; NKCC2 part possibly rabbit; with Solute carrier family 12 member 1 (isoform B, C-terminal apical sorting domain)
# Experiment: FluxOR Tl+ influx fluorescence, initial rate, FlexStation, stably transfected LLC-PK1 cells
# Assay type: cell-based
# Details: external Cl- 3-135 mM (gluconate replacement); co-substrates Na+ and Tl+ (2 mM Tl2SO4), K+-free, pH 7.4; single-site fit; Cl- starved cells
smiles,measurement,value
Cl [Cl^-],Km,23.4 mM
